{
  "source": "patent US8133888B2",
  "about": "“Hydrazide containing taxane conjugates” (Sun Pharma Advanced Research Company Ltd., priority 2008, dated 2012)",
  "key": {"[1]": {"assay": "Solubility of the taxane conjugates in water with added acid (visual clarity)", "assay_type": "physicochemical", "details": "2 mg dispersed in 0.5 ml water, sonicated, 20 μl of 2.5M HCl added, sonicated about 2 min", "description": "About 2 mg of the taxane conjugate of formula I was dispersed in 0.5 ml water (sterile) and sonicated for about 2 min. Small aliquots of a pharmaceutically accepted acid was added, sonicated for 2-3 min after each addition and observed for visual clarity.\nFor example, 2 mg of compound I.03 was dispersed in 0.5 ml water and sonicated for about 2 min."}, "[2]": {"assay": "Conversion of compound of formula I to the active taxane compound in human plasma (LC-MS/MS)", "assay_type": "in vitro ADME", "details": "37° C.; for Peak Area of test compound / % Unconverted Compound I.04: human plasma; for Peak Area of docetaxel formed: docetaxel released from compound I.04 in human plasma", "description": "The conversion of the test compound I.04 of the present invention to the active/parent taxane compound was determined in the human plasma sample. The test compound of 2000 ng per nil concentration was added to human plasma at ambient temperature and was kept in an incubator maintained at 37° C. Aliquots of this plasma sample were taken at definite time intervals and subjected to LC-MS/MS analysis. The samples were analyzed for amount of unconverted test compound and the amount of docetaxel formed in the test solution using LC-MS/MS operating in selected reaction monitoring (SRM) mode, as per follows: • Column: Hypurity Aquastar C-18, 50×2.1 mm, 3 micron • Mobile Phase: 10 mmol ammonium acetate-acetonitrile, 40:60 • Flow Rate: 250 μl/min • Oven Temperature: 45° C. • Retention time of compound I.04: 13.9 min • Retention time of docetaxel: 0.79 min\nThe parent ions>product ions monitored were the following: […]"}, "[3]": {"details": "cited from earlier work"}},
  "data": [
    {"smiles": "CC(=O)O[C@@]12CO[C@@H]1C[C@H](OC(=O)CCC(=O)NN1CCCCC1)[C@@]1(C)C(=O)[C@H](O)C3=C(C)[C@@H](OC(=O)[C@H](OC(=O)CCC(=O)NN4CCCCC4)[C@@H](NC(=O)OC(C)(C)C)c4ccccc4)C[C@@](O)([C@@H](OC(=O)c4ccccc4)[C@H]21)C3(C)C", "note": "[Compound I.03, 10-Deacetyl-N-debenzoyl-N-(tert-butyloxycarbonyl)-2′,7-bis[(N-piperidin-1-yl)succinamidoyl]taxol]", "values": [
      {"measurement": "Solubility, visual clarity", "setting": "[1]", "result": "clear solution"}
    ]},
    {"smiles": "CC(=O)O[C@@]12CO[C@@H]1C[C@H](O)[C@@]1(C)C(=O)[C@H](O)C3=C(C)[C@@H](OC(=O)[C@H](OC(=O)CCC(=O)NN4CCCCC4)[C@@H](NC(=O)OC(C)(C)C)c4ccccc4)C[C@@](O)([C@@H](OC(=O)c4ccccc4)[C@H]21)C3(C)C", "note": "[Compound I.04, 10-Deacetyl-N-debenzoyl-N-(tert-butyloxycarbonyl)-2′-[(N-piperidin-1-yl)-succinamidoyl]taxol]", "values": [
      {"measurement": "Peak Area of test compound", "setting": "[2]; time 0 hrs", "result": 24696932.5, "unit": "counts"},
      {"measurement": "% Unconverted Compound I.04", "setting": "[2]; time 0.0 hrs", "result": 100, "unit": "%"},
      {"measurement": "% Unconverted Compound I.04", "setting": "[2]; time 0.5 hrs", "result": 59.1, "unit": "%"},
      {"measurement": "Peak Area of test compound", "setting": "[2]; time 0.5 hrs", "result": 19303514.4, "unit": "counts"},
      {"measurement": "Peak Area of test compound", "setting": "[2]; time 1 hrs", "result": 16791382.3, "unit": "counts"},
      {"measurement": "% Unconverted Compound I.04", "setting": "[2]; time 1.0 hrs", "result": 40.3, "unit": "%"},
      {"measurement": "Peak Area of test compound", "setting": "[2]; time 2 hrs", "result": 11789443.5, "unit": "counts"},
      {"measurement": "% Unconverted Compound I.04", "setting": "[2]; time 2.0 hrs", "result": 4.7, "unit": "%"},
      {"measurement": "Peak Area of test compound", "setting": "[2]; time 3 hrs", "result": 6259891.0, "unit": "counts"},
      {"measurement": "Peak Area of test compound", "setting": "[2]; time 4 hrs", "result": 3007853.1, "unit": "counts"},
      {"measurement": "% Unconverted Compound I.04", "setting": "[2]; time 4.0 hrs", "result": 0.1, "unit": "%"},
      {"measurement": "Peak Area of test compound", "setting": "[2]; time 6 hrs", "result": 904115.8, "unit": "counts"}
    ]},
    {"smiles": "CC(=O)O[C@@]12CO[C@@H]1C[C@H](O)[C@@]1(C)C(=O)[C@H](O)C3=C(C)[C@@H](OC(=O)[C@H](O)[C@@H](NC(=O)OC(C)(C)C)c4ccccc4)C[C@@](O)([C@@H](OC(=O)c4ccccc4)[C@H]21)C3(C)C", "note": "[Docetaxel, docetaxel, reference compound]", "values": [
      {"measurement": "Peak Area of docetaxel formed", "setting": "[2]; time 0 hrs", "result": 10447.0, "unit": "counts"},
      {"measurement": "Peak Area of docetaxel formed", "setting": "[2]; time 0.5 hrs", "result": 70713.8, "unit": "counts"},
      {"measurement": "Peak Area of docetaxel formed", "setting": "[2]; time 1 hrs", "result": 125083.0, "unit": "counts"},
      {"measurement": "Peak Area of docetaxel formed", "setting": "[2]; time 2 hrs", "result": 243846.6, "unit": "counts"},
      {"measurement": "Peak Area of docetaxel formed", "setting": "[2]; time 3 hrs", "result": 331134.0, "unit": "counts"},
      {"measurement": "Peak Area of docetaxel formed", "setting": "[2]; time 4 hrs", "result": 464924.3, "unit": "counts"},
      {"measurement": "Peak Area of docetaxel formed", "setting": "[2]; time 6 hrs", "result": 546298.2, "unit": "counts"},
      {"measurement": "Solubility, visual clarity", "setting": "[1]", "result": "completely insoluble"},
      {"measurement": "Solubility in water", "setting": "[3]", "result": "< 0.05", "unit": "mg/mL"}
    ]},
    {"smiles": "CC(=O)O[C@H]1C(=O)[C@@]2(C)[C@H]([C@H](OC(=O)c3ccccc3)[C@]3(O)C[C@H](OC(=O)[C@H](O)[C@@H](NC(=O)c4ccccc4)c4ccccc4)C(C)=C1C3(C)C)[C@]1(OC(C)=O)CO[C@@H]1C[C@@H]2O", "note": "[paclitaxel]", "values": [
      {"measurement": "Solubility, visual clarity", "setting": "[1]", "result": "completely insoluble"},
      {"measurement": "Solubility in water (in words)", "setting": "[3]", "result": "poorly soluble in water"}
    ]}
  ]
}
